Results on 50 molecules are retold here after ChEMBL document CHEMBL4421722, “Inhibitors of protein prenyltransferases” (2013).

The species named for this assay is Rattus norvegicus. Put plainly: Inhibition of rat recombinant geranylgeranyltransferase type I expressed in Escherichia coli assessed as residual enzyme activity for geranylgeranylation of K-Ras4B at 50 uM incubated for 30 mins in presence of [3H]GGPP by scintillation counting assay relative to control.
For `COc1cccc([C@@H]2CC=C(C(=O)O)[C@H](c3cccc(F)c3)N2S(=O)(=O)c2ccc(C)cc2)c1`, the Activity turned out to be 82.9%. With `CC(C)(C)c1ccc([C@H]2C(C(=O)O)=CC[C@@H](c3ccc(Cl)cc3)N2S(=O)(=O)c2ccc(Cl)cc2)cc1`, the Activity amounted to 110%.

Regarding `CCCCS[C@@H]1C[C@@H](c2ccc(OC)cc2)N(S(=O)(=O)c2ccc(C)cc2)C[C@H]1C(=O)O`, the Activity came to 74.5%. Next, `CC(=O)C1=CC[C@@H](c2cccs2)N(S(=O)(=O)c2ccc(C)cc2)C1`: 90.3%; `Cc1ccccc1S(=O)(=O)N1[C@@H](c2ccc(C(C)(C)C)cc2)C(C(=O)O)=CC[C@H]1c1ccc(Cl)cc1`: 97.3%; `CCc1ccc([C@@H]2C[C@@H](Sc3ccc(OC)cc3)[C@H](C(=O)O)CN2S(=O)(=O)c2ccc(C)cc2)cc1`: 90.8%.

With `COc1ccc(S[C@@H]2C[C@@H](c3ccc(OC)cc3)N(S(=O)(=O)c3ccc(Cl)cc3)C[C@H]2C(=O)O)cc1`, the Activity was 80.8%.

On to `Cc1ccc(S(=O)(=O)N2[C@@H](c3ccc(Br)cc3)C(C(=O)O)=CC[C@H]2c2ccc(C#N)cc2)cc1`, for which the Activity amounted to 70.6%. Then `COc1cccc([C@@H]2CC=C(C(=O)O)[C@H](c3ccc(C(C)(C)C)cc3)N2S(=O)(=O)c2ccc(C)cc2)c1`, with 95.8%. Then `COc1ccc([C@@H]2C[C@@H](SC3CCCC3)[C@H](C(=O)O)CN2S(=O)(=O)c2ccc(C)cc2)cc1OC`, with 112%. For `CCS[C@@H]1C[C@@H](c2ccc(C)cc2)N(S(=O)(=O)c2ccccc2)C[C@H]1C(=O)O`, the Activity was 95%. For the molecule `Cc1ccc([C@@H]2CC=C(C(=O)O)[C@H](c3cccc(Cl)c3)N2S(=O)(=O)c2ccccc2C)cc1`, the Activity stood at 62.3%. Next, `Cc1ccc(S(=O)(=O)N2C[C@@H](C(=O)O)[C@H](SC3CCCC3)C[C@H]2c2ccccc2)cc1`: 93.6%.

On to `Cc1ccc([C@@H]2CC=C(C(=O)O)[C@H](c3cccc(Cl)c3)N2S(=O)(=O)c2ccc(Cl)cc2)cc1`, for which the Activity lay within 8.4 to 60%.

Regarding `Cc1ccc([C@@H]2C[C@@H](SC3CCCC3)[C@H](C(=O)O)CN2S(=O)(=O)c2ccccc2)cc1`, the Activity was 100%. Then `COc1cc([C@@H]2C[C@@H](Sc3ccccc3)[C@H](C(=O)O)CN2S(=O)(=O)c2ccc(C)cc2)cc(OC)c1OC`, with 83.7%. Then `CCCCS[C@@H]1C[C@@H](c2ccc(C)cc2)N(S(=O)(=O)c2ccccc2)C[C@H]1C(=O)O`, with 72.6%; and `CS(=O)(=O)N1[C@@H](c2ccc(F)cc2)C(C(=O)O)=CC[C@H]1c1ccccc1`, with 67.2%; and `Cc1ccc([C@H]2C(C(=O)O)=CC[C@@H](c3cccc(Cl)c3)N2S(=O)(=O)c2ccc(C)cc2)cc1`, with 66.1%. In the case of `Cc1ccc([C@@H]2CC=C(C(=O)O)[C@H](c3ccc(Cl)cc3)N2S(=O)(=O)c2ccccc2)cc1`, the Activity was found to be 79.9%. Next, `CCCCS[C@@H]1C[C@@H](c2ccc(OC)c(OC)c2)N(S(=O)(=O)c2ccc(C)cc2)C[C@H]1C(=O)O`: 114%; `Cc1ccc(S(=O)(=O)N2C[C@@H](C(=O)O)[C@H](SCCC(C)C)C[C@H]2c2ccc(Cl)cc2)cc1`: 39.4%; `Cc1ccc(S(=O)(=O)N2[C@@H](c3ccc(Cl)cc3)C(C(=O)O)=CC[C@H]2c2cccc(Br)c2)cc1`: 68.1%. Then `Cc1ccc([C@@H]2C[C@@H](SCc3ccccc3)[C@H](C(=O)O)CN2S(C)(=O)=O)cc1`, with 81.8%; and `Cc1ccccc1S(=O)(=O)N1C[C@@H](C(=O)O)[C@H](SC2CCCC2)C[C@H]1c1ccc(Cl)cc1`, with 92.1%; and `Cc1ccc(S(=O)(=O)N2[C@@H](c3ccc(Cl)cc3)C(C(=O)O)=CC[C@H]2c2ccccc2F)cc1`, with 58.2%. Next, `COc1ccc(S[C@@H]2C[C@@H](c3ccc(OC)c(OC)c3)N(S(=O)(=O)c3ccc(C)cc3)C[C@H]2C(=O)O)cc1`: 101%. Consider `CCc1ccc([C@@H]2CC=C(C(=O)O)[C@H](c3cccc(Cl)c3)N2S(=O)(=O)c2ccc(C)cc2)cc1`, for which the Activity worked out at 73.6%. `Cc1ccc(S(=O)(=O)N2[C@@H](c3cccc(C)c3)C(C(=O)O)=CC[C@H]2c2cccc(C)c2)cc1`: the Activity is 58%. In the case of `CCS[C@@H]1C[C@@H](c2ccc(OC)c(OC)c2)N(S(=O)(=O)c2ccc(C)cc2)C[C@H]1C(=O)O`, the Activity was found to be 74.4%.

With `CCCCCS[C@@H]1C[C@@H](c2cc(OC)c(OC)c(OC)c2)N(S(=O)(=O)c2ccc(C)cc2)C[C@H]1C(=O)O`, the Activity turned out to be 81.8%.

As for `C=CCS[C@@H]1C[C@@H](c2ccc(OC)cc2)N(S(=O)(=O)c2ccccc2)C[C@H]1C(=O)O`, the Activity is 106%.

Take `Cc1ccc(S(=O)(=O)N2[C@@H](c3ccc(F)cc3)C(C(=O)O)=CC[C@H]2c2ccc(C#N)cc2)cc1`: the Activity was 65.1%. Then `CCOc1ccc([C@@H]2C[C@@H](Sc3ccc(OC)cc3)[C@H](C(=O)O)CN2S(=O)(=O)c2ccc(C)cc2)cc1`, with 79.1%. Next, `COc1ccc([C@@H]2CC=C(C(=O)O)[C@H](c3ccc(Cl)cc3)N2S(=O)(=O)c2ccccc2C)cc1`: 80%; `CCS[C@@H]1C[C@@H](c2ccc(CC)cc2)N(S(=O)(=O)c2ccc(C)cc2)C[C@H]1C(=O)O`: 84.6%. Regarding `Cc1ccc(S(=O)(=O)N2[C@@H](c3cccc(F)c3)C(C(=O)O)=CC[C@H]2c2cccc(Cl)c2)cc1`, the Activity was 52.8%. Then `CCCCS[C@@H]1C[C@@H](c2ccc(Cl)cc2)N(S(=O)(=O)c2ccc(C)cc2)C[C@H]1C(=O)O`, with 81.5%. Then `Cc1ccc([C@H]2C(C(=O)O)=CC[C@@H](c3ccc(C)cc3)N2S(=O)(=O)c2ccccc2C)cc1`, with 88.3%; and `Cc1ccc(S(=O)(=O)N2[C@@H](c3ccc(C(C)(C)C)cc3)C(C(=O)O)=CC[C@H]2c2ccccc2F)cc1`, with 84.2%. Then `COc1ccc([C@@H]2CC=C(C(=O)O)[C@H](c3cccc(Br)c3)N2S(=O)(=O)c2ccccc2)cc1`, with 58.2%; and `CCCCCCS[C@@H]1C[C@@H](c2ccccc2)N(S(=O)(=O)c2ccc(C)cc2)C[C@H]1C(=O)O`, with 77.5%; and `COc1cc([C@@H]2C[C@@H](SCc3ccc(Cl)cc3)[C@H](C(=O)O)CN2S(=O)(=O)c2ccc(C)cc2)cc(OC)c1OC`, with 44.9%. With `CCCCS[C@@H]1C[C@@H](c2ccc(OC)cc2)N(S(=O)(=O)c2ccc(Cl)cc2)C[C@H]1C(=O)O`, the Activity stood at 72.9%. Next, `Cc1ccc([C@@H]2C[C@@H](SCc3ccc(C(C)(C)C)cc3)[C@H](C(=O)O)CN2S(=O)(=O)c2ccccc2C)cc1`: 69.5%; `COc1cc([C@@H]2C[C@@H](SCc3ccc(C(C)(C)C)cc3)[C@H](C(=O)O)CN2S(=O)(=O)c2ccc(C)cc2)cc(OC)c1OC`: 71.3%. Then `CC(=O)C1=CC[C@@H](c2cccc3ccccc23)N(S(=O)(=O)c2ccc(C)cc2)C1`, with 95.6%; and `COc1ccc([C@@H]2CC=C(C(=O)O)[C@H](c3ccc(C(C)(C)C)cc3)N2S(=O)(=O)c2ccc(C)cc2)cc1OC`, with 90.4%. Then `CCCCCS[C@@H]1C[C@@H](c2cccc(OC)c2)N(S(=O)(=O)c2ccc(C)cc2)C[C@H]1C(=O)O`, with 105%; and `CC(=O)C1=CC[C@@H](c2cccc(Br)c2)N(S(=O)(=O)c2ccc(C)cc2)C1`, with 105%.
